Assay [1] concerns human mast cell tryptase. The assay is described as follows: VIP assay for tryptase activity (Dns-VIP hydrolysis, HPLC/fluorescence, Dixon plot). It counts as biochemical. As to conditions: 0.4 and 0.8 μM VIP; 12.5 pM tryptase; 37° C.; read-out: Ki for inhibition of the formation of Dns-VIP-(1-14). How it is done: In a typical assay, mast cell tryptase (12.5 pM) was incubated at 37° C. with dansyl-VIP (0.2-2 μM) in 100 mM Tris-HCl (pH 8.0) containing 1 μg/ml porcine mucosal heparin and 0.02% Triton X-100 in a final volume of 2.0 ml. To some samples, secretory leukocyte protease inhibitor was added to a final concentration of between 0 and 107 nM. The tryptase was pre-incubated with the SLPI, if added, for 5 min. at 37° C. before initiating the reaction by the addition of Dns-VIP. Aliquots (250 μl) were removed at 0, 2.5, 5.0, 7.5, 10, and 20 minutes to micro-vials (Sunbrokers) and the reaction terminated by the addition of TFA to a final concentration of 3% (v/v). The acidified reaction mixture was subjected to chromatography on a C-18 reverse-phase column (Vydac, 5 micron, 0.46×25 cm). Peptide hydrolysis was monitored by HPLC using a Hewlett Packard HP1090 unit complete with binary solvent delivery and autoinjection capability. Fluorescent detection (postcolumn) was performed with an inline Gilson Model 121 filter fluorimeter (excitation at 310-410 nm, emission at 480-520 nm). Dns-VIP fragments were separated from any unconverted Dns-VIP using a linear gradient of 69:31 (v/v) to 50:50 (v/v) C:D over 5.5 minutes (C=100 mM sodium acetate, pH 6.5 plus 0.2% sodium azide, D=80% ACN in water), with return to 69:31 (v/v) C:D at 6.5 minutes. Chromatography was performed at 1.0 ml/min at 25° C. […]

The target in a further assay is tryptase. Put plainly: GPK-AMC assay for tryptase activity (Dixon plot). The settings on record: 20 and 40 μM GPK-AMC; 37° C.; read-out: Ki for inhibition of tryptase catalyzed cleavage of GPK-AMC. In kind it is biochemical, human. How it is done: Tryptase activity was measured according to the procedure of Schwartz, et al., J. Biol. Chem., 261, 7372-7379 (1986) , with minor modifications, using Gly-Pro-Lys-Aminomethylcoumarin (GPK-AMC) as a substrate. The reaction was performed in assay buffer (0.1M Tris, pH 8.0, 10 μg/ml heparin) at room temperature in a 96-well microtiter plate (Perkin-Elmer, Norwalk, Conn.). The amount of coumarin produced by tryptase was determined by measuring the fluorescence (ex=372 nm, em=432 nm) on a Perkin-Elmer LS-50B fluorimeter equipped with a plate reader. 50 μl of tryptase (final concentration of 333 pM) was mixed with either 50 μl of the sample to be tested or with assay buffer and incubated for 5 min. at room temperature. […] The fluorescence intensity was measured every 5 minutes. For samples that were being tested for modulators of tryptase activity, the % inhibition for each fraction was determined by:
Inhibitory activity against tryptase and bovine trypsin was measured using Gly-Pro-Lys-aminomethylcoumarin as a substrate. […] The amount of coumarin produced was determined by measuring the fluorescence (ex=370 nm, em=432 nm) on a Perkin-Elmer LS-50B fluorimeter. […] The reaction was started by the addition of the substrate GPK-AMC (20 or 40 μM final) and the increase in fluorescence was measured over a 2 minute period. […]

For assay [2], the system named is human mast cell tryptase. Put plainly: Kinetic parameters for enzymatic cleavage of Dns-VIP by tryptase. It counts as biochemical. How it is done:
In a typical assay, mast cell tryptase (12.5 pM) was incubated at 37° C. with dansyl-VIP (0.2-2 μM) in 100 mM Tris-HCl (pH 8.0) containing 1 μg/ml porcine mucosal heparin and 0.02% Triton X-100 in a final volume of 2.0 ml. To some samples, secretory leukocyte protease inhibitor was added to a final concentration of between 0 and 107 nM. The tryptase was pre-incubated with the SLPI, if added, for 5 min. at 37° C. before initiating the reaction by the addition of Dns-VIP. Aliquots (250 μl) were removed at 0, 2.5, 5.0, 7.5, 10, and 20 minutes to micro-vials (Sunbrokers) and the reaction terminated by the addition of TFA to a final concentration of 3% (v/v). The acidified reaction mixture was subjected to chromatography on a C-18 reverse-phase column (Vydac, 5 micron, 0.46×25 cm). Peptide hydrolysis was monitored by HPLC using a Hewlett Packard HP1090 unit complete with binary solvent delivery and autoinjection capability. Fluorescent detection (postcolumn) was performed with an inline Gilson Model 121 filter fluorimeter (excitation at 310-410 nm, emission at 480-520 nm). Dns-VIP fragments were separated from any unconverted Dns-VIP using a linear gradient of 69:31 (v/v) to 50:50 (v/v) C:D over 5.5 minutes (C=100 mM sodium acetate, pH 6.5 plus 0.2% sodium azide, D=80% ACN in water), with return to 69:31 (v/v) C:D at 6.5 minutes. Chromatography was performed at 1.0 ml/min at 25° C. The N-terminal fluorescent products were identified by subjecting known VIP fragments (see above) to chromatography under identical conditions.
The kinetic parameters Km, kcat, and Vmax for the initial rate of formation of Dns-VIP-(1-14) and Dns-VIP-(1-20), as well as the initial rate of disappearance of full-length Dns-VIP were determined. The initial velocity for the formation of Dns-VIP-(1-20) also contains the rate for the formation of Dns-VIP-(1-21) since it appears as a shoulder on the Dns-VIP-(1-20) peak within the elution profile. […] The effect of salt concentration on the initial rates of cleavage of Dns-VIP was measured in 150 mM NaCl and 10 mM CaCl2. In all cases, the kcat/Km values decreased with increasing salt concentration. […] However, this effect was offset by an increase in all of the Km values. […] The results for 10 mM CaCl2 were similar in that Km and Vmax values increased and kcat/Km ratios decreased.
Initial reaction velocities were obtained from a linear least squares analysis of the linear part of a plot of the number of picomoles of each product produced vs. time and where less than 10% of the total Dns-VIP was consumed. To determine the Ki value, a Dixon plot of the form 1/V vs. [I] was made for data collected at two different concentrations of VIP, where V is the velocity (pmoles/min) and [I] is the concentration of SLPI used.

The target in the next assay is T1, bovine trypsin (Bos taurus, UniProt P00760).
T1 sequence (P00760 24-246): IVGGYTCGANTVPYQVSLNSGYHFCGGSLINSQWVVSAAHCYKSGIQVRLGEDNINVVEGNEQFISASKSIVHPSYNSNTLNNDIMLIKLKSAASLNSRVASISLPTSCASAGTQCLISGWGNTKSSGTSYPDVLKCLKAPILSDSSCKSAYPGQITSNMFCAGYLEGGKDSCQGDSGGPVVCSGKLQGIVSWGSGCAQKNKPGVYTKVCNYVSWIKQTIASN
Put plainly: GPK-AMC assay for trypsin activity (Dixon plot). It counts as biochemical. As to conditions: at a concentration of 1800 nM. How it is done: Inhibitory activity against tryptase and bovine trypsin was measured using Gly-Pro-Lys-aminomethylcoumarin as a substrate. The reaction was performed in assay buffer that consisted of 0.1M Tris (pH 8.0), 1 μg/ml heparin, 0.02% Triton X-100, with 20 mM CaCl2 included only in the trypsin assays. The amount of coumarin produced was determined by measuring the fluorescence (ex=370 nm, em=432 nm) on a Perkin-Elmer LS-50B fluorimeter. To measure tryptase activity, 12 μl of a 1 nM solution of tryptase (tetramer) was incubated with either the N- (34 to 650 nM final) or the C-terminal (7-150 nM final) domain of SLPI in 1.0 ml of assay buffer for 5 minutes at 37° C. The reaction was started by the addition of the substrate GPK-AMC (20 or 40 μM final) and the increase in fluorescence was measured over a 2 minute period. In order to measure trypsin activity, 3.3 μl of a 10 μg/ml solution was incubated with either the N- or C- terminal domains of SLPI, and assayed using both 10 and 20 μM GPK-AMC. To determine Ki values, Dixon plots of the form 1/V vs [I] were constructed.

From patent US5633227A, “Secretory leukocyte protease inhibitor as an inhibitor of tryptase” (Miles, Inc., priority 1994, dated 1997) come the findings set out here.

Ends that are not written are not given here. * marks the point of attachment. Dansyl = CN(C)c1cccc2c(S(=O)(=O)*)cccc12

In the case of “C-terminal domain: C-terminal domain of SLPI, amino acids 50-107, from formic acid cleavage of recombinant SLPI (PVDTPNPTRRKPGKCPVTYGQCLMLNPPNFCEMDGQCKRDLKCCMGMCGKSCVSPVKA)”, the inhibitory constant (Ki) in the assay on human mast cell tryptase [1] is 0.0016 µM; at tryptase it was 0.0048 µM.
As for “Dns-VIP-(1-20): Dansyl-VIP fragment of amino acids 1-20 formed by tryptase cleavage after Lys-20; peak includes the 1-21 shoulder (Dansyl-HSDAVFTDNYTRLRKQMAVK; UniProt P01282 125-144, looked up, fragment)”, the “decrease in the kcat/Km ratio” value in the assay with human mast cell tryptase [2] (10 mM CaCl2 vs no addition) amounted to 11 fold. Also, in the assay with human mast cell tryptase [2] (150 mM NaCl vs no addition), the “decrease in the kcat/Km ratio” value was determined as 47 fold and the “increase in Km” value is listed as 72 fold. In the assay on human mast cell tryptase [2] (Addition: 10 mM CaCl2), the Km came to 4.5 µM, the maximal velocity (Vmax) came to 2.6 pmol/min/mg and the kcat/Km came to 0.13 M^-1 sec^1 × 10^7. In the assay on human mast cell tryptase [2] (Addition: 150 mM NaCl), the Km was 9.4 µM, the maximum rate (Vmax) amounted to 1.1 pmol/min/mg and the kcat/Km turned out to be 0.03 M^-1 sec^1 × 10^7. In addition, in the assay on human mast cell tryptase [2] (Addition: None), the Km is 0.1 µM, the maximal velocity (Vmax) is 0.6 pmol/min/mg and the kcat/Km is on record as 1.4 M^-1 sec^1 × 10^7.
Take “Dns-VIP-(1-14): Dansyl-VIP fragment of amino acids 1-14 formed by tryptase cleavage after Arg-14 (Dansyl-HSDAVFTDNYTRLR; UniProt P01282 125-138, looked up, fragment)”: in the assay on human mast cell tryptase [2] (10 mM CaCl2 vs no addition), the “decrease in the kcat/Km ratio” value is reported as 9 fold. In addition, in the assay with human mast cell tryptase [2] (150 mM NaCl vs no addition), the “decrease in the kcat/Km ratio” value stood at 16 fold, the “increase in Km” value was 59 fold and the “increase in Vmax” value was found to be 4 fold. Also, in the assay on human mast cell tryptase [2] (Addition: 10 mM CaCl2), the Km came to 4.1 µM, the Vmax was found to be 4.5 pmol/min/mg and the kcat/Km came to 0.25 M^-1 sec^1 × 10^7. Moreover, in the assay with human mast cell tryptase [2] (Addition: 150 mM NaCl), the Km is 7.7 µM, the maximum rate (Vmax) was determined as 4.9 pmol/min/mg and the kcat/Km is on record as 0.14 M^-1 sec^1 × 10^7. Besides, in the assay on human mast cell tryptase [2] (Addition: None), the Km worked out at 0.1 µM, the Vmax turned out to be 1.3 pmol/min/mg and the kcat/Km was 2.3 M^-1 sec^1 × 10^7.
In the case of “N-terminal domain: N-terminal domain of SLPI, amino acids 1-49, from formic acid cleavage of recombinant SLPI (SGKSFKAGVCPPKKSAQCLRYKKPECQSDWQCPGKKRCCPDTCGIKCLD)”, the Ki in the assay on human mast cell tryptase [1] amounted to 0.13 µM; on tryptase, 0.29 µM. The Inhibition of trypsin result in the assay with bovine trypsin was “unable to inhibit”.
As for “Dns-VIP: N-terminally dansylated vasoactive intestinal peptide (28 amino acids), tryptase substrate (Dansyl-HSDAVFTDNYTRLRKQMAVKKYLNSILN; ends and bridges not checked; also: synthesized on Rink resin (C-terminus not given here))”, the “decrease in the kcat/Km ratio” value in the assay with human mast cell tryptase [2] (10 mM CaCl2 vs no addition) is ~5 fold. Besides, in the assay with human mast cell tryptase [2] (150 mM NaCl vs no addition), the “decrease in the kcat/Km ratio” value worked out at 9 fold and the “increase in Km” value stood at 14 fold. Moreover, in the assay with human mast cell tryptase [2] (Addition: 10 mM CaCl2), the Km came to 4.7 µM, the Vmax turned out to be 8.2 pmol/min/mg and the kcat/Km was determined as 0.4 M^-1 sec^1 × 10^7. Also, in the assay on human mast cell tryptase [2] (Addition: 150 mM NaCl), the Km was determined as 7.4 µM, the Vmax came out at 6.6 pmol/min/mg and the kcat/Km was found to be 0.2 M^-1 sec^1 × 10^7. In the assay on human mast cell tryptase [2] (Addition: None), the Km worked out at 0.5 µM, the Vmax stood at 4.3 pmol/min/mg and the kcat/Km stood at 1.8 M^-1 sec^1 × 10^7.
